The values that follow come from PubChem BioAssay AID743394 (Broad Institute, 2014).

The structures appear in SMILES notation. “And” between values parts separate entries of the source, which are not always exact repeats. Identical values can stand only once. The source made the active and inactive calls.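 The calls were made as follows: active = 40% activation versus positive control reached by fitted dose-response curve at or below highest valid tested dose; inconclusive = poor fit quality, or flat fit with activation between 30% and 70%; inactive = the rest.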

One assay relates to 68-5-11 mouse fibroblast XiGFP reporter, % GFP-positive imaging, 3 d. Put plainly: Xi-linked GFP reactivating small molecules – imaging, 68-5-11 mouse fibroblasts, cherry-pick, dose response (AID 743394).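 Also: sensitizer 5-aza-dC present in the wells at 0.5 mM final.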
Settings: not given
On to `CC1=CC(=Cc2sc3ccccc3[n+]2C)C=C(C)O1`, for which the AC40 was 7.67 µM.

Staying with this assay, now noted: cells co-treated with 5-aza-dC sensitizer.
On to `CN1CCc2c(sc(NC(=O)c3ccc(S(=O)(=O)N4CCc5ccccc54)cc3)c2C(N)=O)C1`, for which the AC40 was 8.93 µM.
For `O=[N+]([O-])c1ccc(C2=NN(c3ccccc3)C(c3ccco3)C2)cc1` (stereo unspecified), the AC40 was 2.25 µM.
Regarding `CC1=NN(c2nc(N)nc(/C(C#N)=C/c3ccc([N+](=O)[O-])o3)n2)C(C)(C)C1`, the AC40 was 2.18 µM.
For `Cc1ccc2cc3c(N)c(C(=O)Nc4c(C)[nH]c(=O)[nH]c4=O)sc3nc2c1`, the AC40 was 13.2 µM.
Turning to `CC(=O)c1ccc(C(=O)Nc2sc3c(c2C(N)=O)CCN(Cc2ccccc2)C3)cc1`, the AC40 was > 19.5 µM (inactive).
The same measure, in the same setting: the figure for `CCOC(=O)Cn1c(=NC(=O)c2ccc([N+](=O)[O-])s2)sc2ccccc21` is 7.3 µM; for `N#CC(C#N)=C1C=C2C=C(N3CCCCCC3)CCC2CC1` (stereo unspecified) it is 4 µM; for `Cc1ccc(-c2cn3nc(-c4ccccc4)c(-c4ccccc4)nc3n2)cc1` it is 7.27 µM.
On to `N#C/C(=C/c1ccc(-c2ccc(S(N)(=O)=O)cc2)o1)c1nc2ccccc2s1`, for which the AC40 is 1.17 µM.
As to `C/C(=N\Nc1ncnc2sc(C)c(C)c12)c1ccccn1`, the AC40 was 0.784 µM.
For `Nc1ccc2c3c(cccc13)-c1ccccc1-2`, the AC40 was 1.04 µM.
For the compound `c1ccc(-c2cnn3c(-c4ccccc4)c(-c4ccccc4)nc3n2)cc1`, the AC40 is 1.8 µM.
In the case of `CCN(CC)c1ccc2cc(C(=O)c3cccs3)c(=O)oc2c1`, the AC40 was 5.34 µM.
The same measure, in the same setting: the figure for `C#Cc1cc(N2CCN(C(=O)c3ccoc3)CC2)n2nc(-c3cccc(Cl)c3)cc2n1` is 8.99 µM; for `COC1=CC(=O)c2c(ccc3ncnc(N)c23)C1=O` it is 9.69 µM; for `CCOC(=O)/C(=C/C=C1\Sc2cc(C)c(C)cc2N1CC)C(C)=O` it is 16.9 µM.
For `CCN1CCc2c(sc(NC(=O)c3ccc(S(=O)(=O)N(CC)c4ccccc4)cc3)c2C(N)=O)C1`, the AC40 was > 19.5 µM (inactive).
For `COc1ccc2c(n1)Sc1nc3ccccc3nc1N2`, the AC40 was 13.1 µM.
For the compound `CCOC(=O)/C=c1\s/c(=C\c2ccc3cc(OC)ccc3c2)c(=O)n1CC(=O)NCc1ccc2c(c1)OCO2`, the AC40 was 7.15 µM.
Regarding `O=[N+]([O-])c1ccc(/C=N/NC(=S)Nc2ccc(Cl)cc2Cl)s1`, the AC40 is > 19.5 µM (inactive).
Consider `COc1ccccc1-[n+]1c(C)cc(/C=C2\Sc3ccccc3N2C)cc1C`, for which the AC40 was 0.249 µM.
`CC(=O)Nc1cc2c3c(cccc3c1)-c1ccccc1-2`: the AC40 was 2.56 µM.
In the case of `COc1cc2c3nnc(-c4ccc(F)cc4)c-3cn(Cc3cccc(C)c3)c2cc1OC`, the AC40 was 3.74 µM.
`C=CCN1C(=O)[C@@H]2Cc3c([nH]c4ccccc34)C(c3cc(OC)c(OC)c(OC)c3)N2C1=S` (stereo partly specified): the AC40 is > 19.5 µM (inactive).
Consider `N#C/C(=C\c1ccc([N+](=O)[O-])o1)c1nc2ccccc2[nH]1`, for which the AC40 is 1.26 µM.
Regarding `COc1cc(/C=C/C(=O)c2ccc([N+](=O)[O-])o2)ccc1O`, the AC40 was 10.3 µM.
Take `Nc1c(C(=O)c2cccs2)sc2nsc(SCCN3CCCCC3)c12`: the AC40 was 2.57 µM.
As for `COc1ccc(C(=O)c2sc3nc(C)cc(-c4cccs4)c3c2N)cc1OC`, the AC40 is > 19.5 µM (inactive).
The same measure, in the same setting: the figure for `CC(C)CCN1C(=O)c2cccc3c(N)ccc(c23)C1=O` is 7.46 µM.
For `Cc1cc(C)cc(NC(=O)/C=C/c2ccc([N+](=O)[O-])s2)c1`, the AC40 was 1.7 µM.
The same measure, in the same setting: with `COc1ccc(C(=O)c2sc3nc(C)cc(-c4cccs4)c3c2N)cc1` the figure was 7.57 µM.
Take `Cc1ccc(NC(=O)/C=C/c2ccc([N+](=O)[O-])s2)c(C)c1`: the AC40 was 1.68 µM.
As for `Cc1cc(N/N=C/c2ccc([N+](=O)[O-])o2)nc2ccccc12`, the AC40 is 8.4 µM.
Regarding `CC(C)CCN1CCN(Cc2cc3ccccc3[nH]2)CC1CCO` (stereo unspecified), the AC40 is 16.4 µM.
`O=C(NCc1ccccc1)c1cccc2c1C(=O)c1ccc(/C=C/c3ccccc3)cc1S2(=O)=O`: the AC40 is 8.5 µM.
Consider `Cc1ccc(Cl)c2c(N=Nc3ccccc3)c(O)[nH]c12`, for which the AC40 is 7.83 µM.
Turning to `CC(=O)Nc1sc(/C(C#N)=C/c2ccc(Cl)c(Cl)c2)nc1-c1ccc(C)cc1`, the AC40 is 1.92 µM.
On to `COc1cc(/C=C/c2ccc3cccc(O)c3n2)c(Br)cc1O`, for which the AC40 is 14 µM.
Take `C[n+]1c2cc(N)ccc2cc2ccc(N)cc21`: the AC40 was 0.297 µM and 0.116 µM.
The same measure, in the same setting: with `Cc1c2c(cc3c1[nH]c1ccccc13)C=NCC2` the figure was 9.27 µM; with `Cc1nnc(N2C(=O)c3cccc4c([N+](=O)[O-])ccc(c34)C2=O)s1`, > 19.5 µM (inactive).
Take `CCc1cccc2cc3c(N)c(C(=O)Nc4ccc(S(=O)(=O)N5CCCC5)cc4)sc3nc12`: the AC40 was 4.01 µM.
Turning to `N#C/C(=C\c1ccc(N2CCCCC2)o1)C(=O)Nc1cccc(Br)c1`, the AC40 is 0.406 µM.
Consider `CCN1/C(=C\c2ccc3cc(C)ccc3[n+]2CC)Sc2cc(C)c(C)cc21`, for which the AC40 is 5.57 µM.
With `CC(=O)[C@@]1(O)Cc2c(O)c3c(c(O)c2[C@H](O[C@H]2C[C@H](N)[C@H](O)[C@H](C)O2)C1)C(=O)c1ccccc1C3=O`, the AC40 was 1.09 µM.
Still for that read-out and setting: the figure for `CCC(CO)[n+]1c(C)cc(/C=C2\Sc3ccccc3N2Cc2ccccc2)cc1C` (stereo unspecified) is 1.55 µM; for `Nc1c(Br)cc2c3c(cccc13)-c1ccccc1-2` it is 12.6 µM.
Take `Cc1cc(/C=C2\SC(=S)N(Cc3ccco3)C2=O)c(C)n1-c1ccccc1`: the AC40 was > 19.5 µM (inactive).
Take `CCCCNc1ccc2c3c(cccc13)C(=O)N(CCCC)C2=O`: the AC40 was 0.927 µM.
Take `CCN(CC)C1=CC2=CC(=C(C#N)C#N)CCC2CC1` (stereo unspecified): the AC40 was 8.77 µM.
As for `CC(C)N1CCc2c(sc(NC(=O)c3ccc4ccccc4c3)c2C(N)=O)C1`, the AC40 was 13.3 µM.
In the case of `CCN1C(=O)[C@@H]2Cc3c([nH]c4ccccc34)C(c3cc(OC)c(OC)c(OC)c3)N2C1=S` (stereo partly specified), the AC40 was > 19.5 µM (inactive).
Same read-out and setting: with `Cc1cc(C)c2cc3c(N)c(C(=O)Nc4c(C)[nH]c(=O)[nH]c4=O)sc3nc2c1` the figure was 19.3 µM.
With `CCN1CCc2c(sc(NC(=O)Nc3ccc(Cl)c(Cl)c3)c2C(N)=O)C1`, the AC40 is 0.196 µM.
Regarding `COC(=O)C1=C(C)NC(C)=C(C(=O)OC)C1C(=O)OCC(=O)c1ccc(F)cc1`, the AC40 is 15.3 µM.
